Measured values published in ChEMBL document CHEMBL1201862, “PubChem BioAssay data set” (2004).
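Exposure lasted 48 hours, with cells grown in 96-well plates and compounds tested at five concentrations. GI50 = concentration required for 50% inhibition of growth.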 Activity calls are given as the source filed them. No stated cut-off is given here; in the data, active = GI50 up to about 1.1 µM and inactive = higher.

Legend:
Assay in all cases: NCI-60 cell line screen, 48 h
MOLT-4 = test system: MOLT-4
SR = test system: SR
HT-29 = test system: HT-29
OVCAR-4 = test system: OVCAR-4
IGROV-1 = test system: IGROV-1
SF-295 = test system: SF-295
SK-OV-3 = test system: SK-OV-3
OVCAR-8 = test system: OVCAR-8
SNB-19 = test system: SNB-19
SW-620 = test system: SW-620
SNB-75 = test system: SNB-75
NCI-H522 = test system: NCI-H522
RPMI-8226 = test system: RPMI-8226
NCI-H226 = test system: NCI-H226
OVCAR-5 = test system: OVCAR-5
SK-MEL-28 = test system: SK-MEL-28
SN12C = test system: SN12C
HOP-92 = test system: HOP-92
NCI-H23 = test system: NCI-H23
T47D = test system: T47D
A498 = test system: A498
786-0 = test system: 786-0
OVCAR-3 = test system: OVCAR-3
HL-60 = test system: HL-60
PC-3 = test system: PC-3
BT-549 = test system: BT-549
A549 = test system: A549
CCRF-CEM = test system: CCRF-CEM
SF-539 = test system: SF-539
HCT-116 = test system: HCT-116
U-251 = test system: U-251
SK-MEL-5 = test system: SK-MEL-5
MDA-MB-435 = test system: MDA-MB-435
ACHN = test system: ACHN
UO-31 = test system: UO-31
HCC 2998 = test system: HCC 2998
TK-10 = test system: TK-10
MDA-N = test system: MDA-N
UACC-62 = test system: UACC-62
DU-145 = test system: DU-145
M14 = test system: M14
KM12 = test system: KM12
CAKI-1 = test system: CAKI-1
EKVX = test system: EKVX
K562 = test system: K562
RXF 393 = test system: RXF 393
SF-268 = test system: SF-268
MCF7 = test system: MCF7
MDA-MB-231 = test system: MDA-MB-231
HOP-62 = test system: HOP-62
COLO 205 = test system: COLO 205
SK-MEL-2 = test system: SK-MEL-2
UACC-257 = test system: UACC-257
HCT-15 = test system: HCT-15
NCI/ADR-RES = test system: NCI/ADR-RES
NCI-H460 = test system: NCI-H460
LOX IMVI = test system: LOX IMVI
Hs-578T = test system: Hs-578T
Malme-3M = test system: Malme-3M

CC(C)(Br)C(Br)CCC1(C(Br)CBr)CO1 (stereo not drawn)
GI50 (MOLT-4): > 10 µM (inactive) | GI50 (SR): > 10 µM (inactive) | GI50 (HT-29): > 10 µM (inactive) | GI50 (OVCAR-4): > 10 µM (inactive) | GI50 (IGROV-1): > 10 µM (inactive) | GI50 (SF-295): > 10 µM (inactive) | GI50 (SK-OV-3): > 10 µM (inactive) | GI50 (OVCAR-8): > 10 µM (inactive) | GI50 (SNB-19): > 10 µM (inactive) | GI50 (SW-620): > 10 µM (inactive) | GI50 (SNB-75): > 10 µM (inactive) | GI50 (NCI-H522): > 10 µM (inactive) | GI50 (RPMI-8226): > 10 µM (inactive) | GI50 (NCI-H226): > 10 µM (inactive) | GI50 (OVCAR-5): > 10 µM (inactive) | GI50 (SK-MEL-28): > 10 µM (inactive) | GI50 (SN12C): > 10 µM (inactive) | GI50 (HOP-92): > 10 µM (inactive) | GI50 (NCI-H23): > 10 µM (inactive) | GI50 (T47D): > 10 µM (inactive) | GI50 (A498): > 10 µM (inactive) | GI50 (786-0): > 10 µM (inactive) | GI50 (OVCAR-3): > 10 µM (inactive) | GI50 (HL-60): > 10 µM (inactive) | GI50 (PC-3): > 10 µM (inactive) | GI50 (BT-549): > 10 µM (inactive) | GI50 (A549): > 10 µM (inactive) | GI50 (CCRF-CEM): > 10 µM (inactive) | GI50 (SF-539): > 10 µM (inactive) | GI50 (HCT-116): > 10 µM (inactive) | GI50 (U-251): > 10 µM (inactive) | GI50 (SK-MEL-5): > 10 µM (inactive) | GI50 (MDA-MB-435): > 10 µM (inactive) | GI50 (ACHN): > 10 µM (inactive) | GI50 (UO-31): > 10 µM (inactive) | GI50 (HCC 2998): > 10 µM (inactive) | GI50 (TK-10): > 10 µM (inactive) | GI50 (MDA-N): > 10 µM (inactive) | GI50 (UACC-62): > 10 µM (inactive) | GI50 (DU-145): > 10 µM (inactive) | GI50 (M14): > 10 µM (inactive) | GI50 (KM12): > 10 µM (inactive) | GI50 (CAKI-1): > 10 µM (inactive) | GI50 (EKVX): > 10 µM (inactive) | GI50 (K562): > 10 µM (inactive) | GI50 (RXF 393): > 10 µM (inactive) | GI50 (SF-268): > 10 µM (inactive) | GI50 (MCF7): > 10 µM (inactive) | GI50 (MDA-MB-231): > 10 µM (inactive) | GI50 (HOP-62): > 10 µM (inactive) | GI50 (COLO 205): > 10 µM (inactive)

O=[N+]([O-])c1ccc2c(c1)c(S(=O)(=O)O)cc1nonc12
GI50 (MOLT-4): > 100 µM (inactive) | GI50 (SR): > 100 µM (inactive) | GI50 (HT-29): > 100 µM (inactive) | GI50 (OVCAR-4): > 100 µM (inactive) | GI50 (IGROV-1): > 100 µM (inactive) | GI50 (SF-295): > 100 µM (inactive) | GI50 (SK-OV-3): > 100 µM (inactive) | GI50 (OVCAR-8): > 100 µM (inactive) | GI50 (SNB-19): > 100 µM (inactive) | GI50 (SK-MEL-2): > 100 µM (inactive) | GI50 (SW-620): > 100 µM (inactive) | GI50 (NCI-H522): > 100 µM (inactive) | GI50 (RPMI-8226): > 100 µM (inactive) | GI50 (NCI-H226): > 100 µM (inactive) | GI50 (OVCAR-5): > 100 µM (inactive) | GI50 (SK-MEL-28): > 100 µM (inactive) | GI50 (SN12C): > 100 µM (inactive) | GI50 (HOP-92): > 100 µM (inactive) | GI50 (NCI-H23): > 100 µM (inactive) | GI50 (T47D): > 100 µM (inactive) | GI50 (UACC-257): > 100 µM (inactive) | GI50 (A498): > 100 µM (inactive) | GI50 (786-0): > 100 µM (inactive) | GI50 (OVCAR-3): > 100 µM (inactive) | GI50 (HL-60): > 100 µM (inactive) | GI50 (PC-3): > 100 µM (inactive) | GI50 (HCT-15): > 100 µM | GI50 (BT-549): > 100 µM (inactive) | GI50 (A549): > 100 µM (inactive) | GI50 (NCI/ADR-RES): > 100 µM (inactive) | GI50 (SF-539): > 100 µM (inactive) | GI50 (NCI-H460): > 100 µM (inactive) | GI50 (HCT-116): > 100 µM (inactive) | GI50 (U-251): > 100 µM (inactive) | GI50 (SK-MEL-5): > 100 µM (inactive) | GI50 (MDA-MB-435): > 100 µM (inactive) | GI50 (ACHN): > 100 µM (inactive) | GI50 (UO-31): > 100 µM (inactive) | GI50 (TK-10): > 100 µM (inactive) | GI50 (LOX IMVI): > 100 µM (inactive) | GI50 (MDA-N): > 100 µM (inactive) | GI50 (UACC-62): > 100 µM (inactive) | GI50 (M14): > 100 µM (inactive) | GI50 (KM12): > 100 µM (inactive) | GI50 (CAKI-1): > 100 µM (inactive) | GI50 (EKVX): > 100 µM (inactive) | GI50 (K562): > 100 µM (inactive) | GI50 (SF-268): > 100 µM (inactive) | GI50 (MCF7): > 100 µM (inactive) | GI50 (MDA-MB-231): > 100 µM (inactive) | GI50 (Hs-578T): > 100 µM (inactive) | GI50 (HOP-62): > 100 µM (inactive) | GI50 (Malme-3M): > 100 µM (inactive) | GI50 (COLO 205): > 100 µM (inactive)

O=S(=O)(O)c1cc(S(=O)(=O)O)c2cc(/N=N/c3c(O)ccc4ccccc34)ccc2c1
GI50 (MOLT-4): > 100 µM (inactive) | GI50 (HT-29): > 100 µM (inactive) | GI50 (OVCAR-4): > 100 µM (inactive) | GI50 (IGROV-1): > 100 µM (inactive) | GI50 (SF-295): > 100 µM (inactive) | GI50 (SK-OV-3): > 100 µM (inactive) | GI50 (OVCAR-8): > 100 µM (inactive) | GI50 (SNB-19): > 100 µM (inactive) | GI50 (SK-MEL-2): > 100 µM (inactive) | GI50 (SW-620): > 100 µM (inactive) | GI50 (SNB-75): > 100 µM (inactive) | GI50 (NCI-H522): > 100 µM (inactive) | GI50 (RPMI-8226): > 100 µM (inactive) | GI50 (NCI-H226): > 100 µM (inactive) | GI50 (OVCAR-5): > 100 µM (inactive) | GI50 (SK-MEL-28): > 100 µM (inactive) | GI50 (SN12C): > 100 µM (inactive) | GI50 (HOP-92): > 100 µM (inactive) | GI50 (NCI-H23): > 100 µM (inactive) | GI50 (T47D): > 100 µM (inactive) | GI50 (UACC-257): > 100 µM (inactive) | GI50 (786-0): > 100 µM (inactive) | GI50 (OVCAR-3): > 100 µM (inactive) | GI50 (HL-60): > 100 µM (inactive) | GI50 (PC-3): > 100 µM (inactive) | GI50 (HCT-15): > 100 µM | GI50 (BT-549): > 100 µM (inactive) | GI50 (A549): > 100 µM (inactive) | GI50 (NCI/ADR-RES): > 100 µM (inactive) | GI50 (CCRF-CEM): > 100 µM (inactive) | GI50 (HCT-116): > 100 µM (inactive) | GI50 (U-251): > 100 µM (inactive) | GI50 (SK-MEL-5): > 100 µM (inactive) | GI50 (MDA-MB-435): > 100 µM (inactive) | GI50 (ACHN): > 100 µM (inactive) | GI50 (UO-31): > 100 µM (inactive) | GI50 (TK-10): > 100 µM (inactive) | GI50 (LOX IMVI): > 100 µM (inactive) | GI50 (MDA-N): > 100 µM (inactive) | GI50 (UACC-62): > 100 µM (inactive) | GI50 (DU-145): > 100 µM (inactive) | GI50 (M14): > 100 µM (inactive) | GI50 (KM12): > 100 µM (inactive) | GI50 (CAKI-1): > 100 µM (inactive) | GI50 (EKVX): > 100 µM (inactive) | GI50 (K562): > 100 µM (inactive) | GI50 (RXF 393): > 100 µM (inactive) | GI50 (SF-268): > 100 µM (inactive) | GI50 (MDA-MB-231): > 100 µM (inactive) | GI50 (Hs-578T): > 100 µM (inactive) | GI50 (HOP-62): > 100 µM (inactive) | GI50 (Malme-3M): 50.7 µM (inactive) | GI50 (COLO 205): > 100 µM (inactive)
